Test results as given in PubChem BioAssay AID330 (DTP/NCI, 2004).
Values joined by “and” are separate entries in the source; they are usually repeats but may differ in a detail not shown here. Identical values can stand only once. Inconclusive results and toxic doses are left out. How the source made its calls: active means survival T/C of 150% or more; inactive means T/C below 125% in these data.

Test system: P388 leukemia ip, CD2F1 mice, survival T/C
Assay: NCI In Vivo Anticancer Drug Screen. Data for tumor model P388 Leukemia (intraperitoneal) in CD2F1 (CDF1) mice
Details: endpoint: median survival time, higher = longer survival
Procedure, shortened: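 Mice carrying the transplanted tumor received test compound or vehicle. Survival was recorded in each group, and the value is the treated-group measurement divided by that of the vehicle-treated control group.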

[1] = dose: 50.0 mg/kg/injection, schedule: Q01DX009 (ip), vehicle: saline with Tween-80
[2] = dose: 100.0 mg/kg/injection, schedule: Q01DX009 (ip), vehicle: saline with Tween-80
[3] = dose: 200.0 mg/kg/injection, schedule: Q01DX009 (ip), vehicle: saline with Tween-80
[4] = dose: 100.0 mg/kg/injection, schedule: Q04DX003 (ip), vehicle: saline with Tween-80
[5] = dose: 200.0 mg/kg/injection, schedule: Q04DX003 (ip), vehicle: saline with Tween-80
[6] = dose: 50.0 mg/kg/injection, schedule: Q01DX005 (ip), vehicle: saline with Tween-80
[7] = dose: 100.0 mg/kg/injection, schedule: Q01DX005 (ip), vehicle: saline with Tween-80
[8] = dose: 50.0 mg/kg/injection, schedule: Q01DX005 (ip), vehicle: Klucel (hydroxypropylcellulose) (HPC)
[9] = dose: 100.0 mg/kg/injection, schedule: Q01DX005 (ip), vehicle: Klucel (hydroxypropylcellulose) (HPC)
[10] = dose: 200.0 mg/kg/injection, schedule: Q01DX005 (ip), vehicle: saline with Tween-80
[11] = dose: 200.0 mg/kg/injection, schedule: Q01DX005 (ip), vehicle: Klucel (hydroxypropylcellulose) (HPC)
[12] = dose: 50.0 mg/kg/injection, schedule: Q01DX009 (ip), vehicle: Klucel (hydroxypropylcellulose) (HPC)

Measured: T/C

COC(C)C(Cl)C(=O)NN=C(c1ccccc1)c1ccccc1 (centres undefined)
inactive: [1] 108 % of control | [2] 105 % of control | [3] 99 % of control

C#CCn1cnc2c(=S)nc[nH]c21
inactive: dose: 180.0 mg/kg/injection, schedule: Q01DX009 (ip), vehicle: saline with Tween-80 87 % of control

O=C(c1ccccc1)c1ccc([N+](=O)[O-])cc1
inactive: dose: 3.13 mg/kg/injection, schedule: Q01DX009 (ip), vehicle: saline with Tween-80 97 % of control | dose: 6.25 mg/kg/injection, schedule: Q01DX009 (ip), vehicle: saline with Tween-80 95 % of control | dose: 12.5 mg/kg/injection, schedule: Q01DX009 (ip), vehicle: saline with Tween-80 91 % of control | dose: 25.0 mg/kg/injection, schedule: Q01DX009 (ip), vehicle: saline with Tween-80 91 % of control | dose: 50.0 mg/kg/injection, schedule: Q04DX003 (ip), vehicle: saline with Tween-80 95 % of control | [4] 100 % of control | [5] 109 % of control

CCCCN1C=C(C)N(CCCC)CC1
inactive: dose: 12.5 mg/kg/injection, schedule: Q01DX005 (ip), vehicle: saline with Tween-80 109 % of control | dose: 25.0 mg/kg/injection, schedule: Q01DX005 (ip), vehicle: saline with Tween-80 114 % of control | [6] 121 % of control and 123 % of control | [7] 116 % of control

COC(=O)C1C2c3ccccc3C(C1C(=O)OC)[n+]1ccccc12 (centres undefined)
inactive: dose: 25.0 mg/kg/injection, schedule: Q01DX005 (ip), vehicle: Klucel (hydroxypropylcellulose) (HPC) 94 % of control | [8] 94 % of control | [9] 100 % of control

O=C1Nc2ccccc2C1=O
inactive: [1] 100 % of control | [2] 101 % of control | [3] 105 % of control

CC(C)C(CC(=O)O)C(=O)O (centres undefined)
inactive: [6] 100 % of control | [7] 91 % of control | [10] 104 % of control

NNC(=O)C(=O)n1ccnc1
inactive: [6] 95 % of control | [7] 102 % of control | [10] 101 % of control

COC(=O)CC1C(C)=CCC2C(=O)C=C(OC)C(=O)C21C (centres undefined)
inactive: [8] 101 % of control | [9] 101 % of control | [11] 100 % of control

COc1ccc2nc(N(C)C)cc(N(C)C)c2c1
inactive: dose: 12.5 mg/kg/injection, schedule: Q01DX009 (ip), vehicle: Klucel (hydroxypropylcellulose) (HPC) 94 % of control | dose: 25.0 mg/kg/injection, schedule: Q01DX009 (ip), vehicle: Klucel (hydroxypropylcellulose) (HPC) 94 % of control | [12] 87 % of control

N#CC(C=C(c1ccccc1)c1ccccc1)c1ccccc1 (centres undefined)
inactive: dose: 100.0 mg/kg/injection, schedule: Q04DX003 (ip), vehicle: saline 98 % of control | dose: 200.0 mg/kg/injection, schedule: Q04DX003 (ip), vehicle: saline 98 % of control | dose: 400.0 mg/kg/injection, schedule: Q04DX003 (ip), vehicle: saline 96 % of control

OCC1OC(n2c(=S)[nH]c3ccccc32)C(O)C1O (centres undefined)
inactive: dose: 60.0 mg/kg/injection, schedule: Q01DX005 (ip), vehicle: saline with Tween-80 98 % of control | dose: 120.0 mg/kg/injection, schedule: Q01DX005 (ip), vehicle: saline with Tween-80 98 % of control

COc1cc2cnc(-c3ccc(Cl)c(Cl)c3)c(O)c2cc1OC
inactive: dose: 50.0 mg/kg/injection, schedule: Q01DX009 (ip), vehicle: saline 90 % of control | dose: 100.0 mg/kg/injection, schedule: Q01DX009 (ip), vehicle: saline 102 % of control | dose: 200.0 mg/kg/injection, schedule: Q01DX009 (ip), vehicle: saline 90 % of control

O=C(O)C1CSCN1 (centres undefined)
inactive: dose: 6.25 mg/kg/injection, schedule: Q01DX009 (ip), vehicle: water 90 % of control and 96 % of control | dose: 12.5 mg/kg/injection, schedule: Q01DX009 (ip), vehicle: water 99 % of control and 96 % of control | dose: 25.0 mg/kg/injection, schedule: Q01DX009 (ip), vehicle: water 98 % of control and 99 % of control | dose: 50.0 mg/kg/injection, schedule: Q01DX009 (ip), vehicle: water 98 % of control and 95 % of control | dose: 100.0 mg/kg/injection, schedule: Q01DX009 (ip), vehicle: water 100 % of control | dose: 200.0 mg/kg/injection, schedule: Q01DX009 (ip), vehicle: water 96 % of control

CCOC(=O)C(C)(C)S(=O)(=O)Nc1ccccc1
inactive: dose: 60.0 mg/kg/injection, schedule: Q01DX005 (ip), vehicle: Klucel (hydroxypropylcellulose) (HPC) 105 % of control | dose: 120.0 mg/kg/injection, schedule: Q01DX005 (ip), vehicle: Klucel (hydroxypropylcellulose) (HPC) 102 % of control | dose: 240.0 mg/kg/injection, schedule: Q01DX005 (ip), vehicle: Klucel (hydroxypropylcellulose) (HPC) 102 % of control

Cc1ccc2oc3c(=O)c4ccccc4c(=O)c=3oc2c1
inactive: [4] 90 % of control | [5] 89 % of control | dose: 400.0 mg/kg/injection, schedule: Q04DX003 (ip), vehicle: saline with Tween-80 90 % of control

Clc1ccc(-c2csc(NCC3CCCO3)n2)cc1 (centres undefined)
inactive: [12] 100 % of control | dose: 100.0 mg/kg/injection, schedule: Q01DX009 (ip), vehicle: Klucel (hydroxypropylcellulose) (HPC) 108 % of control | dose: 200.0 mg/kg/injection, schedule: Q01DX009 (ip), vehicle: Klucel (hydroxypropylcellulose) (HPC) 100 % of control

CSc1cc(C)c(C#N)c(SC)n1
inactive: [6] 92 % of control | [7] 89 % of control | [10] 99 % of control

O=C(/C=C/c1ccc(O)cc1)NCCc1c[nH]c2ccc(O)cc12
inactive: dose: 25.0 mg/kg/injection, schedule: Q01DX005 (ip), vehicle: Klucel + Tween-80 106 % of control | dose: 50.0 mg/kg/injection, schedule: Q01DX005 (ip), vehicle: Klucel + Tween-80 97 % of control | dose: 100.0 mg/kg/injection, schedule: Q01DX005 (ip), vehicle: Klucel + Tween-80 92 % of control | dose: 200.0 mg/kg/injection, schedule: Q01DX005 (ip), vehicle: Klucel + Tween-80 95 % of control

Nc1ccc(S(=O)(=O)NC(CSSCC(NS(=O)(=O)c2ccc(N)cc2)C(=O)O)C(=O)O)cc1 (centres undefined)
inactive: [8] 110 % of control | [9] 101 % of control | [11] 113 % of control

CCc1cccc(C2(C)C(=O)c3ccccc3C2=O)c1
inactive: dose: 100.0 mg/kg/injection, schedule: Q04DX002 (ip), vehicle: saline 105 % of control | dose: 200.0 mg/kg/injection, schedule: Q04DX002 (ip), vehicle: saline 100 % of control | dose: 400.0 mg/kg/injection, schedule: Q04DX002 (ip), vehicle: saline 102 % of control

O=C(NCc1nc2ncc(Br)cc2[nH]1)c1ccccc1
inactive: dose: 100.0 mg/kg/injection, schedule: Q01DX001 (ip), vehicle: saline with Tween-80 100 % of control | dose: 200.0 mg/kg/injection, schedule: Q01DX001 (ip), vehicle: saline with Tween-80 100 % of control | dose: 400.0 mg/kg/injection, schedule: Q01DX001 (ip), vehicle: saline with Tween-80 98 % of control

CC1(O)C=CC(=O)C=C1
inactive: dose: 1.56 mg/kg/injection, schedule: Q01DX009 (ip), vehicle: distilled water + Tween-80 103 % of control | dose: 3.13 mg/kg/injection, schedule: Q01DX009 (ip), vehicle: distilled water + Tween-80 102 % of control | dose: 6.25 mg/kg/injection, schedule: Q01DX009 (ip), vehicle: distilled water + Tween-80 109 % of control | dose: 12.5 mg/kg/injection, schedule: Q01DX009 (ip), vehicle: distilled water + Tween-80 109 % of control

CC(=O)c1ccc2ccccc2n1
inactive: dose: 25.0 mg/kg/injection, schedule: Q01DX009 (ip), vehicle: other 102 % of control | dose: 50.0 mg/kg/injection, schedule: Q01DX009 (ip), vehicle: other 105 % of control | dose: 100.0 mg/kg/injection, schedule: Q01DX009 (ip), vehicle: other 111 % of control | dose: 200.0 mg/kg/injection, schedule: Q01DX009 (ip), vehicle: other 114 % of control | dose: 400.0 mg/kg/injection, schedule: Q01DX009 (ip), vehicle: other 114 % of control

COc1cc2c(cc1OC)-c1ccccc1COC2=O
inactive: dose: 100.0 mg/kg/injection, schedule: Q04DX002 (ip), vehicle: saline with Tween-80 102 % of control | dose: 200.0 mg/kg/injection, schedule: Q04DX002 (ip), vehicle: saline with Tween-80 93 % of control | dose: 400.0 mg/kg/injection, schedule: Q04DX002 (ip), vehicle: saline with Tween-80 92 % of control
